Measured values as given in the supplement of paper PMC10307832.

Columns and labels:
Assay in all cases: relative viability (nuclei count vs DMSO), 5 days (fraction); higher = more cells survive
[1] = compound: C1CN(CCN1)C2=CC=C(C=C2)C3=CN4C(=C(C=N4)C5=CC=NC6=CC=CC=C56)N=C3 [DM3189]
How it was run: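 Only plates meeting two conditions passed: control CV below 25% and at least one doubling. Lung cancer cell lines, kept overnight at 37 °C in 1536-well plates, were pinned with five library-drug doses (not always all listed) √10 apart on vehicle-anchored plates and grown 5 days without medium change. A one-step fix, permeabilisation and Hoechst stain preceded 4× imaging and MetaXpress nuclear counting. Viability equals treated-well nuclei divided by vehicle-well nuclei, as the median over plates.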

[2] = compound: C1CN(CCN1)C2=CC=C(C=C2)C3=CN4C(=C(C=N4)C5=CC=NC6=CC=CC=C56)N=C3 [DM3189] + Cc1nc(NC(=O)N2CCC[C@H]2C(N)=O)sc1-c1ccnc(C(C)(C)C(F)(F)F)c1 [Alpelisib] (partner 2 µM)
How it was run: (§1)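 Five library-drug doses in √10 steps were combined with a fixed anchor-drug dose, or a single drug was given alone, by pin tool to lung cancer cell lines in 1536-well plates the day after seeding. Nuclei were stained and counted after 5 days. Relative viability is the nuclei count in treated wells over that in vehicle wells, taken as the median of duplicate plates.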

[3] = compound: C1CN(CCN1)C2=CC=C(C=C2)C3=CN4C(=C(C=N4)C5=CC=NC6=CC=CC=C56)N=C3 [DM3189] + O=C(c1cc(Cc2n[nH]c(=O)c3ccccc23)ccc1F)N1CCN(C(=O)C2CC2)CC1 [Olaparib] (partner 8 µM)
How it was run: as §1

[4] = compound: C1CN(CCN1)C2=CC=C(C=C2)C3=CN4C(=C(C=N4)C5=CC=NC6=CC=CC=C56)N=C3 [DM3189] + CS(=O)(=O)CCNCc1ccc(-c2ccc3ncnc(Nc4ccc(OCc5cccc(F)c5)c(Cl)c4)c3c2)o1 [Lapatinib] (partner 2 µM)
How it was run: as §1

[5] = compound: C1CN(CCN1)C2=CC=C(C=C2)C3=CN4C(=C(C=N4)C5=CC=NC6=CC=CC=C56)N=C3 [DM3189] + CS(=O)(=O)N1CCN(Cc2cc3nc(-c4cccc5[nH]ncc45)nc(N4CCOCC4)c3s2)CC1 [Pictilisib] (partner 1 µM)
How it was run: as §1

[6] = compound: C1CN(CCN1)C2=CC=C(C=C2)C3=CN4C(=C(C=N4)C5=CC=NC6=CC=CC=C56)N=C3 [DM3189] + C[C@]1(O)C[C@@H](c2nc(-c3ccc4ccc(-c5ccccc5)nc4c3)c3c(N)nccn32)C1 [Linsitinib] (partner 1 µM)
How it was run: as §1

[7] = compound: C1CN(CCN1)C2=CC=C(C=C2)C3=CN4C(=C(C=N4)C5=CC=NC6=CC=CC=C56)N=C3 [DM3189] + COc1cc2c(Oc3ccc(NC(=O)C4(C(=O)Nc5ccc(F)cc5)CC4)cc3F)ccnc2cc1OCCCN1CCOCC1 [Foretinib] (partner 0.25 µM)
How it was run: as §1

[8] = compound: C1CN(CCN1)C2=CC=C(C=C2)C3=CN4C(=C(C=N4)C5=CC=NC6=CC=CC=C56)N=C3 [DM3189] + C[C@@H](Oc1cc(-c2cnn(C3CCNCC3)c2)cnc1N)c1c(Cl)ccc(F)c1Cl [Crizotinib] (partner 1 µM)
How it was run: as §1

[9] = compound: C1CN(CCN1)C2=CC=C(C=C2)C3=CN4C(=C(C=N4)C5=CC=NC6=CC=CC=C56)N=C3 [DM3189] + CC1(C)CCC(c2ccc(Cl)cc2)=C(CN2CCN(c3ccc(C(=O)NS(=O)(=O)c4ccc(N[C@H](CCN5CCOCC5)CSc5ccccc5)c(S(=O)(=O)C(F)(F)F)c4)cc3)CC2)C1 [Navitoclax] (partner 0.5 µM)
How it was run: as §1

[10] = compound: C1CN(CCN1)C2=CC=C(C=C2)C3=CN4C(=C(C=N4)C5=CC=NC6=CC=CC=C56)N=C3 [DM3189] + CC(C)C[C@H](NC(=O)[C@H](Cc1ccccc1)NC(=O)c1cnccn1)B(O)O [Bortezomib] (partner 0.002 µM)
How it was run: as §1

[11] = compound: C1CN(CCN1)C2=CC=C(C=C2)C3=CN4C(=C(C=N4)C5=CC=NC6=CC=CC=C56)N=C3 [DM3189] + O=C(CCCCCCC(=O)Nc1ccccc1)NO [Vorinostat] (partner 1 µM)
How it was run: as §1

**Q.** Which results are given for Calu-6?
**A.** relative viability ([1]; 0.08 µM): 1.03; relative viability ([1]; 0.253 µM): 0.966; relative viability ([1]; 0.8 µM): 0.812; relative viability ([1]; 2.53 µM): 1.03; relative viability ([2]; first compound 0.08 µM): 1.06; relative viability ([2]; first compound 0.253 µM): 0.855; relative viability ([2]; first compound 0.8 µM): 0.702; relative viability ([2]; first compound 2.53 µM): 0.77; relative viability ([3]; first compound 0.08 µM): 0.625; relative viability ([3]; first compound 0.253 µM): 0.529; relative viability ([3]; first compound 0.8 µM): 0.45; relative viability ([3]; first compound 2.53 µM): 0.608; relative viability ([4]; first compound 0.08 µM): 0.998; relative viability ([4]; first compound 0.253 µM): 0.905; relative viability ([4]; first compound 0.8 µM): 0.822; relative viability ([4]; first compound 2.53 µM): 0.885; relative viability ([5]; first compound 0.08 µM): 0.876; relative viability ([5]; first compound 0.253 µM): 0.658; relative viability ([5]; first compound 0.8 µM): 0.657; relative viability ([5]; first compound 2.53 µM): 0.692; relative viability ([6]; first compound 0.08 µM): 0.975; relative viability ([6]; first compound 0.253 µM): 0.958; relative viability ([6]; first compound 0.8 µM): 0.703; relative viability ([6]; first compound 2.53 µM): 0.763; relative viability ([7]; first compound 0.08 µM): 0.901; relative viability ([7]; first compound 0.253 µM): 0.768; relative viability ([7]; first compound 0.8 µM): 0.715; relative viability ([7]; first compound 2.53 µM): 0.765; relative viability ([8]; first compound 0.08 µM): 0.895; relative viability ([8]; first compound 0.253 µM): 0.788; relative viability ([8]; first compound 0.8 µM): 0.732; relative viability ([8]; first compound 2.53 µM): 0.544; relative viability ([9]; first compound 0.08 µM): 0.819; relative viability ([9]; first compound 0.253 µM): 0.678; relative viability ([9]; first compound 0.8 µM): 0.705; relative viability ([9]; first compound 2.53 µM): 0.486; relative viability ([10]; first compound 0.08 µM): 0.997; relative viability ([10]; first compound 0.253 µM): 0.941; relative viability ([10]; first compound 0.8 µM): 0.816; relative viability ([10]; first compound 2.53 µM): 0.784

**Q.** How did the relative viability ([1]; 0.08 µM) turn out when EBC-1 was run?
**A.** Its relative viability is 0.974.

**Q.** And the relative viability ([1]; 0.253 µM)?
**A.** The relative viability was 0.989.

**Q.** And the relative viability ([1]; 0.8 µM)?
**A.** Its relative viability is 0.963.

**Q.** What about the relative viability ([1]; 2.53 µM) of the same cell line?
**A.** Its relative viability is 1.07.

**Q.** What about the relative viability ([2]; first compound 0.08 µM) of the same cell line?
**A.** The relative viability was 0.864.

**Q.** What about the relative viability ([2]; first compound 0.253 µM) of the same cell line?
**A.** Its relative viability is 0.759.

**Q.** And the relative viability ([2]; first compound 0.8 µM)?
**A.** Its relative viability is 0.817.

**Q.** What about the relative viability ([2]; first compound 2.53 µM) of the same cell line?
**A.** The relative viability was 0.985.

**Q.** And the relative viability ([3]; first compound 0.08 µM)?
**A.** Its relative viability is 0.858.

**Q.** What about the relative viability ([3]; first compound 0.253 µM) of the same cell line?
**A.** Its relative viability is 0.778.

**Q.** And the relative viability ([3]; first compound 0.8 µM)?
**A.** The relative viability was 0.71.

**Q.** And the relative viability ([3]; first compound 2.53 µM)?
**A.** The relative viability was 0.673.

**Q.** What about the relative viability ([4]; first compound 0.08 µM) of the same cell line?
**A.** The relative viability was 0.228.

**Q.** And the relative viability ([4]; first compound 0.253 µM)?
**A.** Its relative viability is 0.214.

**Q.** And the relative viability ([4]; first compound 0.8 µM)?
**A.** The relative viability was 0.214.

**Q.** And the relative viability ([4]; first compound 2.53 µM)?
**A.** The relative viability was 0.2.

**Q.** And the relative viability ([5]; first compound 0.08 µM)?
**A.** Its relative viability is 0.419.

**Q.** And the relative viability ([5]; first compound 0.253 µM)?
**A.** The relative viability was 0.435.

**Q.** And the relative viability ([5]; first compound 0.8 µM)?
**A.** Its relative viability is 0.344.

**Q.** What about the relative viability ([5]; first compound 2.53 µM) of the same cell line?
**A.** The relative viability was 0.285.

**Q.** And the relative viability ([6]; first compound 0.08 µM)?
**A.** The relative viability was 0.993.

**Q.** What about the relative viability ([6]; first compound 0.253 µM) of the same cell line?
**A.** The relative viability was 0.965.

**Q.** What about the relative viability ([6]; first compound 0.8 µM) of the same cell line?
**A.** Its relative viability is 0.869.

**Q.** What about the relative viability ([6]; first compound 2.53 µM) of the same cell line?
**A.** Its relative viability is 1.06.

**Q.** What about the relative viability ([7]; first compound 0.08 µM) of the same cell line?
**A.** Its relative viability is 0.11.

**Q.** What about the relative viability ([7]; first compound 0.253 µM) of the same cell line?
**A.** Its relative viability is 0.106.

**Q.** What about the relative viability ([7]; first compound 0.8 µM) of the same cell line?
**A.** The relative viability was 0.0886.

**Q.** And the relative viability ([7]; first compound 2.53 µM)?
**A.** Its relative viability is 0.0977.

**Q.** And the relative viability ([8]; first compound 0.08 µM)?
**A.** The relative viability was 0.196.

**Q.** And the relative viability ([8]; first compound 0.253 µM)?
**A.** The relative viability was 0.183.

**Q.** What about the relative viability ([8]; first compound 0.8 µM) of the same cell line?
**A.** Its relative viability is 0.164.

**Q.** And the relative viability ([8]; first compound 2.53 µM)?
**A.** Its relative viability is 0.179.

**Q.** And the relative viability ([9]; first compound 0.08 µM)?
**A.** The relative viability was 0.48.

**Q.** And the relative viability ([9]; first compound 0.253 µM)?
**A.** Its relative viability is 0.356.

**Q.** And the relative viability ([9]; first compound 0.8 µM)?
**A.** Its relative viability is 0.478.

**Q.** What about the relative viability ([9]; first compound 2.53 µM) of the same cell line?
**A.** The relative viability was 0.391.

**Q.** What about the relative viability ([10]; first compound 0.08 µM) of the same cell line?
**A.** Its relative viability is 0.63.

**Q.** And the relative viability ([10]; first compound 0.253 µM)?
**A.** The relative viability was 0.611.

**Q.** What about the relative viability ([10]; first compound 0.8 µM) of the same cell line?
**A.** The relative viability was 0.483.

**Q.** And the relative viability ([10]; first compound 2.53 µM)?
**A.** Its relative viability is 0.551.

**Q.** Which results are given for IA-LM?
**A.** relative viability ([1]; 0.08 µM): 1.2; relative viability ([1]; 0.253 µM): 1.11; relative viability ([1]; 0.8 µM): 1.06; relative viability ([1]; 2.53 µM): 1.21; relative viability ([2]; first compound 0.08 µM): 1.24; relative viability ([2]; first compound 0.253 µM): 0.581; relative viability ([2]; first compound 0.8 µM): 0.963; relative viability ([2]; first compound 2.53 µM): 1.31; relative viability ([11]; first compound 0.08 µM): 0.962; relative viability ([11]; first compound 0.253 µM): 1.11; relative viability ([11]; first compound 0.8 µM): 1.1; relative viability ([11]; first compound 2.53 µM): 1.04; relative viability ([3]; first compound 0.08 µM): 0.999; relative viability ([3]; first compound 0.253 µM): 1.02; relative viability ([3]; first compound 0.8 µM): 0.821; relative viability ([3]; first compound 2.53 µM): 1.2; relative viability ([4]; first compound 0.08 µM): 1.09; relative viability ([4]; first compound 0.8 µM): 0.855; relative viability ([4]; first compound 2.53 µM): 1.02; relative viability ([5]; first compound 0.08 µM): 0.355; relative viability ([5]; first compound 0.253 µM): 0.353; relative viability ([5]; first compound 0.8 µM): 0.426; relative viability ([5]; first compound 2.53 µM): 0.566; relative viability ([6]; first compound 0.08 µM): 0.699; relative viability ([6]; first compound 0.253 µM): 0.682; relative viability ([6]; first compound 0.8 µM): 0.51; relative viability ([6]; first compound 2.53 µM): 0.901; relative viability ([7]; first compound 0.08 µM): 1.24; relative viability ([7]; first compound 0.253 µM): 1.2; relative viability ([7]; first compound 0.8 µM): 1.26; relative viability ([7]; first compound 2.53 µM): 1.32; relative viability ([8]; first compound 0.08 µM): 0.857; relative viability ([8]; first compound 0.8 µM): 1.01; relative viability ([8]; first compound 2.53 µM): 1.11; relative viability ([9]; first compound 0.08 µM): 1.22; relative viability ([9]; first compound 0.253 µM): 1.22; relative viability ([9]; first compound 0.8 µM): 0.951; relative viability ([9]; first compound 2.53 µM): 0.987; relative viability ([10]; first compound 0.08 µM): 1.28; relative viability ([10]; first compound 0.253 µM): 0.935; relative viability ([10]; first compound 0.8 µM): 1.37; relative viability ([10]; first compound 2.53 µM): 0.956
